Tests used:
[1] = molecular target: T1, adenosine A1 (human) membrane (Homo sapiens, UniProt P30542); test: A1 adenosine receptor radioligand binding assay ([3H] DPCPX); conditions: compound at 200 nM, radioligand [3H] DPCPX 1 nM
T1 construct: purchased PerkinElmer ES-010-M400UA
T1 sequence (P30542 1-326): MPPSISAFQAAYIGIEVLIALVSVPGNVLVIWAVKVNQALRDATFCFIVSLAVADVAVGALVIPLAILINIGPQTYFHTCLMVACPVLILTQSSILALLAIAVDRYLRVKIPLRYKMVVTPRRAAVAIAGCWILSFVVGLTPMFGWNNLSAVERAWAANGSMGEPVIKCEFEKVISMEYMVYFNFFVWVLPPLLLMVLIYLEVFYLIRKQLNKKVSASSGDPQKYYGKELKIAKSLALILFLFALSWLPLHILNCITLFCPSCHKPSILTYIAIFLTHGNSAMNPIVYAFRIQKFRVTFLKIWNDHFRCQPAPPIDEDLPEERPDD
Procedure: A second A1 adenosine receptor radioligand binding assay protocol was used. The protocol used adenosine A1 (human) membrane (PerkinElmer ES-010-M400UA) at a concentration of 2.5 μg/well/100 μl and the radioligand [3H] DPCPX (Cat No. PerkinElmer-NET974250UC) at a final concentration of 1 nM. Testing compounds were tested at a final concentration of 200 nM. CGS-15943, the reference compound, was tested in an 8-point 4-fold serial dilution, starting at a top concentration of 1 μM. 1 μl of compounds/high control/low control was transferred to the assay plate according to a plate map, followed by 100 μl of membrane stocks and 100 μl of radioligand, in assay buffer (25 mM HEPES, 5 mM MgCl2, 1 mM CaCl2, 100 mM NaCl, pH 7.4). The plate was sealed and incubated at RT for 1 hour. Unifilter-96 GF/C filter plates (Perkin Elmer Cat #6005174) were soaked with 50 μl of 0.3% PEI per well for at least 0.5 hour at room temperature. When the binding assays were completed, the reaction mixtures were filtered through GF/C plates using Perkin Elmer Filtermate Harvester, and each plate washed 4 times with cold wash buffer (25 mM HEPES, 5 mM MgCl2, 1 mM CaCl2, 100 mM NaCl, pH 7.4). The filter plates were dried for 1 hour at 50 degrees. After drying, the bottom of the filter plate wells was sealed, 50 μl of Perkin Elmer Microscint 20 cocktail was added, and the top of the filter plate was sealed. ^3H trapped on the filter was counted using Perkin Elmer MicroBeta2 Reader. The data were analyzed with GraphPad Prism 5 to obtain binding IC50 values for the reference compound. The “Inhibition [% Control]” was calculated using the equation: % Inh =(1−Background subtracted Assay value/Background subtracted HC value)*100, where HC is high control.

[2] = molecular target: T2, HEK-293 cells expressing human recombinant adenosine A2A receptor (Homo sapiens, UniProt P29274); test: cAMP assay (Assay 2), A2A receptor; type: cell-based; conditions: HEK-293 cells expressing human A2A receptor
T2 construct: expressed in transfected cells; host or cells: HEK-293
Procedure: (§1) The functional activity of compounds was tested using Assay 2 below, to detect the presence of cAMP. Assay 1 is an alternative assay for this purpose. Activation of G-protein coupled receptors (such as A2A) results in activation of adenylyl cyclase which converts ATP into cAMP which is used as a downstream signaling molecule. Molecules which act as GPCR (or specifically A2A receptor) antagonists cause a decrease in intracellular cAMP concentration.
(§2) Assay 2 (Table B2): This assay used HEK-293 cells expressing human recombinant adenosine A2A receptor (or, alternatively, A1 receptor) that were grown prior to the test in media without antibiotic. 100 nL of test articles at 100× of final concentration were transferred to assay plate by Echo. Cells were washed twice with 5 mL of PBS and 10 μL of cells were mixed with 5 mL PBS. After aspirating the PBS and adding 1.5 mL versine, cells were incubated at 37° C. for 2-5 min. After centrifugation, 4 mL of medium was added and adjusted cell density to 5,000 cells/well with Stimulation Buffer. 10 μL of cells were aliquoted to the assay plate, centrifuged at 1000 rpm for 1 minute, and incubated for 60 minutes at room temperature. 5 μL 4× Eu-cAMP tracer solution and 5 μL 4× Ulight™-anti-cAMP solution were added to assay plate, followed by centrifugation and 60-minute incubation at room temperature. Plates were read on EnVision.

[3] = molecular target: T3, HEK-293 cells expressing human recombinant A1 receptor (Homo sapiens, UniProt P30542); test: cAMP assay (Assay 2), A1 receptor; type: cell-based; conditions: HEK-293 cells expressing A1 receptor
T3 construct: expressed in transfected cells; host or cells: HEK-293
T3 sequence (P30542 1-326): T1 sequence (P30542 1-326)
Procedure: as §1, §2

[4] = molecular target: T4, adenosine A2a (human) membrane (Homo sapiens, UniProt P29274); test: A2A adenosine receptor radioligand binding assay ([3H] CGS-21680); conditions: radioligand [3H] CGS-21680 6 nM
T4 construct: purchased PerkinElmer RBHA2AM400UA
Procedure: A second A2A adenosine receptor radioligand binding assay protocol was used. The protocol used adenosine A2a (human) membrane (PerkinElmer RBHA2AM400UA) at a concentration of 5 μg/well/100 μl and the radioligand [3H] CGS-21680 (Cat No. PerkinElmer-NET1021250UC) at a final concentration of 6 nM. Testing compounds were diluted with DMSO to make 8-point 4-fold serial dilution, starting at 0.2 mM. CGS-15943 was the reference compound. 1 μl of compounds/high control/low control was transferred to the assay plate according to a plate map, followed by 100 μl of membrane stocks and 100 μl of radioligand, in assay buffer (50 mM Tris-HCl, 10 mM MgCl2, 1 mM EDTA, pH 7.4). The plate was sealed and incubated at RT for 2 hours. Unifilter-96 GF/C filter plates (Perkin Elmer Cat #6005174) were soaked with 50 μl of 0.3% PEI per well for at least 0.5 hour at room temperature. When the binding assays were completed, the reaction mixtures were filtered through GF/C plates using Perkin Elmer Filtermate Harvester, and each plate washed 4 times with cold wash buffer (50 mM Tris-HCl, 154 mM NaCl, pH 7.4). The filter plates were dried for 1 hour at 50 degrees. After drying, the bottom of the filter plate wells was sealed, 50 μl of Perkin Elmer Microscint 20 cocktail was added, and the top of the filter plate was sealed. ^3H trapped on the filter was counted using Perkin Elmer MicroBeta2 Reader. The data were analyzed with GraphPad Prism 5 to obtain binding IC50 values. The “Inhibition [% Control]” was calculated using the equation: % Inh=(1−Background subtracted Assay value/Background subtracted HC value)*100, where HC is high control.

T4 sequence (P29274 whole entry): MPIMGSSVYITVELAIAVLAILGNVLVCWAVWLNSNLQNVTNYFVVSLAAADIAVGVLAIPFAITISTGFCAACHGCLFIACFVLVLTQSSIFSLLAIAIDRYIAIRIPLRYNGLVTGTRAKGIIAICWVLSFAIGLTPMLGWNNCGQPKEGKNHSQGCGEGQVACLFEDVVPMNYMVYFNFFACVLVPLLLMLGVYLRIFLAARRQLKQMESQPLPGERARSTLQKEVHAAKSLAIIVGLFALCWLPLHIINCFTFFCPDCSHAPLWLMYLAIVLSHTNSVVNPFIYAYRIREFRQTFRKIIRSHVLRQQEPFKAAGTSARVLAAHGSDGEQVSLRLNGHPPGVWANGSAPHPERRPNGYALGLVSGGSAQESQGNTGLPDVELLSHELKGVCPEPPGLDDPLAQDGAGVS
T2 sequence (P29274 whole entry): as above

Row | SMILES | inhibition at 0.2 µM [1] [%] | IC50 [2] [nM] | IC50 [3] [nM] | IC50 [4] [nM]
1 | CC(C)(O)c1cccc(COc2nc(-c3cc(Cl)c4ncccc4c3)c(-c3ccc(F)cc3)nc2N)n1 [Compound No. 58, 2-(6-(((3-amino-6-(8-chloroquinolin-6-yl)-5-(4-fluorophenyl)pyrazin-2-yl)oxy)methyl)pyridin-2-yl)propan-2-ol] | 85 | 18.4 | 92.7 | –
2 | Cc1ccn(-c2nc(N)c(OCc3cccc(C(C)(C)O)n3)nc2-c2cc(Cl)c3ncccc3c2)n1 [compound 1, 2-(6-(((3-amino-6-(8-chloroquinolin-6-yl)-5-(3-methyl-1H-pyrazol-1-yl)pyrazin-2-yl)oxy)methyl)pyridin-2-yl)propan-2-ol] | – | 164 | – | –
3 | CC(C)(O)c1cccc(COc2nc(-c3ccc4ncccc4c3)c(-c3ccccc3)nc2N)n1 [compound 2, 2-(6-(((3-amino-5-phenyl-6-(quinolin-6-yl)pyrazin-2-yl)oxy)methyl)pyridin-2-yl)propan-2-ol] | – | 15.1 | 32.3 | –
4 | CC(C)(O)c1cccc(Cn2cc(-c3nc(-c4ccc5ncccc5c4)c(-c4ccccc4)nc3N)nn2)n1 [compound 102, 2-(6-((4-(3-amino-5-phenyl-6-(quinolin-6-yl)pyrazin-2-yl)-1H-1,2,3-triazol-1-yl)methyl)pyridin-2-yl)propan-2-ol] | 97 | 19.6 | 8.7 | –
5 | C[C@H](c1ccccn1)N(C)C(=O)c1nc(-c2ccc3ncccc3c2)c(-c2ccccc2)nc1N [compound 119, (R)-3-amino-N-methyl-5-phenyl-N-(1-(pyridin-2-yl)ethyl)-6-(quinolin-6-yl)pyrazine-2-carboxamide] | 49 | – | – | 105
6 | C[C@@H](c1ccccn1)N(C)C(=O)c1nc(-c2ccc3ncccc3c2)c(-c2ccccc2)nc1N [compound 120, (S)-3-amino-N-methyl-5-phenyl-N-(1-(pyridin-2-yl)ethyl)-6-(quinolin-6-yl)pyrazine-2-carboxamide] | 90 | – | – | 65
7 | CC(NC(=O)c1nc(-c2ccc3ncccc3c2)c(-c2ccccc2)nc1N)c1ccccc1 (stereo not drawn) [compound 121, 3-amino-5-phenyl-N-(1-phenylethyl)-6-(quinolin-6-yl)pyrazine-2-carboxamide] | 68 | – | – | 2.1

— patent US20220119367A1, “HETEROCYCLIC COMPOUNDS AS ADENOSINE ANTAGONISTS” (Nuvation Bio Inc., priority 2019, published 2022)
